Measurements published in patent US5811391A, “Cyclic CS-1 peptidomimetics, compositions and methods of using same” (Cytel Corporation, priority 1995, dated 1998).
Several values for one entry are separate records, joined by “and”; a condition that tells them apart may be missing. Equal entries are not always repeated. Positions of bridges follow the written chain, without caps; N, C: chain ends. Non-standard residues stand in square brackets, D forms with d. Residues, ends and D or L forms follow the SMILES beside them. No end group written: not given here. *: point of attachment. PhAc = O=C(Cc1ccccc1)*

Experiments:
VLA-4/sVCAM-1 = target: T1, VLA-4/sVCAM-1 (Homo sapiens, UniProt P05556+P13612); assay: In vitro binding assay: Jurkat cells to solid phase-bound sVCAM-1; type: cell-based; conditions: for relative potencies for inhibiting Jurkat cell binding to solid phase-bound sVCAM-1: compared against each other, XLDFp = 1
T1 construct: host or cells: Jurkat cells carry the VLA-4; The sVCAM-1 partner was made in house in transfected human embryonal kidney 293 cells (ATCC CRL 1573)
Description: Assays conducted using sVCAM-1 as solid phase-bound antigen were carried out substantially identically to those using CS-1. The sVCAM-1 polypeptide used had the same amino acid residue sequence as the materials described in Lobb et al., Biochem. Biophys. Res. Commun., 178:1498-1504 (1991) and Cybulsky et al., Proc. Natl. Acad. Sci., USA, 88:7859-7863 (1991). Human embryonal kidney line 293 (ATCC CRL 1573) cells were co-transfected with a plasmid (pCDNAI;invitrogen) containing the sVCAM-1 DNA sequence and plasmid pSV2-neo [Southern et al., J. Mol. Appl. Gen., 1:327-341 ([…])]. Cells were selected in DMEM, 10 percent fetal bovine serum and 600 μg/ml Geneticin. sVCAM-1 was purified from supernatants using a column containing monoclonal antibody P3H12 (anti-human VCAM-1) coupled to Sepharose 4B. The sVCAM-1 was eluted using 0.1M glycine at pH 2.5 following 50 column washes with PBS, pH 7.2. The eluate was immediately neutralized and dialyzed against PBS for use.

[1] = Retention of potency in PBS containing 10 percent mouse or human serum; type: in vitro ADME; conditions: PBS at 7.2-7.4 containing 10 percent mouse or human serum
VLA-4 [2] = target: T2, VLA-4 (Homo sapiens, UniProt P05556+P13612); assay: In vitro binding assay: 51Cr-labeled Jurkat cells to solid phase-bound CS-1 peptide (SEQ ID NO:5); type: cell-based; parameters: inflammatory cells that contain the VLA-4 receptor [Jurkat cells; host or cells: Jurkat cells (human T lymphoblastic line); conditions: for Relative Potency: Jurkat cells, CS-1; for CS-1 inhibition potencies relative to each other: ratio XLDFZ:XLDFp:SEQ ID NO:7, XLDFp = 1; for Potency in inhibiting Jurkat cell binding to CS-1 relative to standard 10-mer of SEQ ID NO:6: times/fold more potent than SEQ ID NO:6
Description: Binding inhibition is measured here as a concentration of peptide that inhibits one-half the binding between a standard number of Jurkat cells and a standard amount of CS-1 peptide bound to the surface of a microtiter plate well. Those concentrations are conveniently expressed as IC50 values, smaller numbers indicating a lower concentration required to inhibit 50 percent binding and therefore greater potency. Further specifics of this assay are provided hereinafter.
Jurkat cells (ATCC TIB 152), a human T lymphoblastic line, labeled with ^51 chromium were used to assay in vitro binding inhibition provided by various peptides discussed herein.
The plates were prepared as follows: The 25-mer CS-1 peptide (SEQ ID NO:5) dissolved at 0.5-1 μg/ml in a buffer of 0.1M NaHCO3 at pH 9.5 that also contained 10 μg/ml of bovine serum albumin (BSA) or a conjugate of the CS-1 peptide linked to ovalbumin (CS-1-OVA) dissolved at 1-2.5 μg/ml in the same buffer was used as the substrate. Each well of the microtiter plates was coated with 50 μl of substrate or buffer alone for controls. The wells were permitted to dry out completely and were then rinsed twice with PBS at pH 7.4. Non-specific binding sites of each well were then blocked using 200 μl per well of RPMI/1 percent BSA for two hours at room temperature. Both solid phase-affixed substrates provided similar results.
Jurkat cells (3-5×10^6 cells) were placed into a 15 ml FALCON™ round-bottom tube with a cap. The tube was centrifuged, and the extra medium was then removed.
Two hundred microliters of a ^51 Cr labeling solution were added to the centrifuged cells and maintained in contact with the cells for 90-120 minutes in a warm room. This procedure typically provides about 50,000-100,000 cpm/well with about 80-100 percent cell viability. Longer contact times provide a greater amount of labeling but lower cell viability.
The labeled cells were washed with (i) complete medium, (ii) 1mM EDTA/PBS and then (iii) RPM1/1 percent BSA free of serum components. The cells were centrifuged after each washing. The cells were finally resuspended in serum-free RPMI/1 percent BSA at a concentration of 1×10^6 viable cells/ml, which provides a concentration that is diluted by one-half in the assay.
Cyclic inhibitor peptides were prepared as stock solutions at 20 mg/ml in DMSO in 1.5 ml cryogenic screwcap vials, and were stored at -70° C. Using FLOW™ round-bottom or V-bottom microtiter plates, the inhibitor peptides were prepared at twice the assay concentration in RPMI/1 percent BSA at 60 μl/well.
Four initial dilutions were typically used.
The ^51 Cr-labeled cells (1×10^6 cells at 60 μl/well) were then admixed with the diluted cyclic peptide solutions. The admixtures were maintained at room temperature (about 22° C.) for 30 minutes.
One hundred microliters of each inhibitor peptide/cell admixture were transferred to the substrate-coated wells. This was done in triplicate for each dilution. The resulting plates were incubated for 30 minutes at 37° C. and then washed gently three times with RPMI/1 percent BSA at 200 μl/well. Binding was observed microscopically, particularly after the second wash.
The bound cells were then lysed by the addition of a 0.5 percent solution of sodium dodecylsulfate in water at 100 μl/well. The resulting solutions were then processed for counting and calculation of IC50 values following usual procedures. Appropriate positive and negative controls were used with each plate so that the results of separate assays could be normalized and compared.
The potency data of Table 1 and Table 2 are so normalized. The absolute IC50 value for the peptide of SEQ ID NO:7 is 0.3 μM.

contact hypersensitivity = conditions: Ferguson et al. 1991; cited from earlier work
[3] = Elices et al. 1993; cited from earlier work
VLA-4 [4] = target: T2, VLA-4; conditions: cited from earlier work
[5] = Table 1, normalized IC50 potency relative to standard peptide SEQ ID NO:6 (=1)
[6] = Table 2, normalized IC50 potency relative to standard peptide SEQ ID NO:6

T1 sequence (P13612 34-1032): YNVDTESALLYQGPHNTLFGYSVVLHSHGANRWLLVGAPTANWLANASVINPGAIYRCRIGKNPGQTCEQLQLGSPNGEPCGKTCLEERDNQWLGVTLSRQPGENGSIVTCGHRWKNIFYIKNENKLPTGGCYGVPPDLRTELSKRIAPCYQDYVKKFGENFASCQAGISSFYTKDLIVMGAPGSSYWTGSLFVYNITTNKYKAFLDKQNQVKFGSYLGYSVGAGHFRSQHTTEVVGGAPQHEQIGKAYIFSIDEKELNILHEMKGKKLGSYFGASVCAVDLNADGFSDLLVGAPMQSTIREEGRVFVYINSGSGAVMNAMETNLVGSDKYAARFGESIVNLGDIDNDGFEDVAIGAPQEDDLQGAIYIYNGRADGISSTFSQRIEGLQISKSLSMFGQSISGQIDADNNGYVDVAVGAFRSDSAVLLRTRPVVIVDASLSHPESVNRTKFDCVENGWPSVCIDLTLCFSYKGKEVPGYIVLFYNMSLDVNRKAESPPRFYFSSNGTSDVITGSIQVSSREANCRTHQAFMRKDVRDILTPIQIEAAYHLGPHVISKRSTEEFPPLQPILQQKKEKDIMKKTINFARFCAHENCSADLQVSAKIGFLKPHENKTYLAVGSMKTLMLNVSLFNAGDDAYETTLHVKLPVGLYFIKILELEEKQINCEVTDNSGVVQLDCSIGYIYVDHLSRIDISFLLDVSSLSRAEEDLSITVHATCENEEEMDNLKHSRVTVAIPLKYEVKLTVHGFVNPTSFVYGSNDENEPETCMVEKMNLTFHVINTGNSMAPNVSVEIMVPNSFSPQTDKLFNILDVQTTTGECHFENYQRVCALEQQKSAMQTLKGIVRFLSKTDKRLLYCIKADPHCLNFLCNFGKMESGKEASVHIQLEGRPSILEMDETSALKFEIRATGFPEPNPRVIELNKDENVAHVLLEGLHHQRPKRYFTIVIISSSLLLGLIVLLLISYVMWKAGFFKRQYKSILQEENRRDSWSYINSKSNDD
T1 sequence (P05556 21-798): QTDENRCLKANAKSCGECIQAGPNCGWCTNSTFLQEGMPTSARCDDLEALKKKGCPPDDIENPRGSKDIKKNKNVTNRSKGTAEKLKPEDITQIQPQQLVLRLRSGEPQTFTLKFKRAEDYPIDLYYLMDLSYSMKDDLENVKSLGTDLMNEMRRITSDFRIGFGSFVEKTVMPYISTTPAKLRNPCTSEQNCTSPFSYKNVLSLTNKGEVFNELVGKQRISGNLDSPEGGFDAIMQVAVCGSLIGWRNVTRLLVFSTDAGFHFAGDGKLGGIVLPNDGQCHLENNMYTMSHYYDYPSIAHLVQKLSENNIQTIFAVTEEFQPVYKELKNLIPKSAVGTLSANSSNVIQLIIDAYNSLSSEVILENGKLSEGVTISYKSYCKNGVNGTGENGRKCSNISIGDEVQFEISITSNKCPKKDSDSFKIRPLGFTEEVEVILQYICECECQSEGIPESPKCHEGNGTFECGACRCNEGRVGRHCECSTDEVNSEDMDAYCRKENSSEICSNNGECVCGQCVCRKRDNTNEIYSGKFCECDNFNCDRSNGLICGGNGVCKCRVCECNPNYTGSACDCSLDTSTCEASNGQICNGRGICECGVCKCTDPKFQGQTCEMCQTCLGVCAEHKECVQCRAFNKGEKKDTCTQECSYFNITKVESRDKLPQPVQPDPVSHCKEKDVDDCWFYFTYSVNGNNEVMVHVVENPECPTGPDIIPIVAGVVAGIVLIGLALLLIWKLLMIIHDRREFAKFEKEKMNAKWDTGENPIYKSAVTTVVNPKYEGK
T2 sequence (P13612 34-1032): as the sequence (P13612 34-1032) above
T2 sequence (P05556 21-798): as the sequence (P05556 21-798) above

Relative Potency (VLA-4 [2]; [5]) | Relative Potency (VLA-4 [2]; [6]) | Compound | other results
– | 122 | CC(C)C[C@@H]1NC(=O)[C@H](Cc2ccccc2)NC(=O)[C@@H](N)CSSC[C@@H](C(N)=O)NC(=O)[C@H](CO)NC(=O)[C@@H]2CCCN2C(=O)[C@H](Cc2ccccc2)NC(=O)[C@H](CC(=O)O)NC1=O [drawing 12] (H-CFLDFPSC-NH2; disulfide 1-8) | –
– | 52.6 | CC(=O)N[C@@H](Cc1ccccc1)C(=O)N[C@H]1CSSC[C@@H](C(N)=O)NC(=O)[C@H](Cc2ccccc2)NC(=O)[C@H](CC(=O)O)NC1=O [drawing 21] (Ac-FCDFC-NH2; disulfide 2-5) | –
– | 31.3 | CC(C)C[C@@H]1NC(=O)[C@H](Cc2ccccc2)NC(=O)[C@H](CCC(=O)O)NC(=O)[C@@H]2CCCN2C(=O)[C@@H](N)CSSC[C@@H](C(N)=O)NC(=O)[C@@H]2CCCN2C(=O)[C@H](Cc2ccccc2)NC(=O)[C@H](CC(=O)O)NC1=O [drawing 23] (H-CPEFLDFPC-NH2; disulfide 1-9) | –
– | 18.8 | CC(C)C[C@@H]1NC(=O)[C@H](Cc2ccccc2)NC(=O)[C@H](CCC(=O)O)NC(=O)[C@@H](N)CSSC[C@@H](C(N)=O)NC(=O)[C@@H]2CCCN2C(=O)[C@H](Cc2ccccc2)NC(=O)[C@H](CC(=O)O)NC1=O [drawing 26] (H-CEFLDFPC-NH2; disulfide 1-8) | –
– | 9.39 | CC(C)C[C@@H]1NC(=O)[C@H](Cc2ccccc2)NC(=O)[C@H](CCC(=O)O)NC(=O)[C@@H]2CCCN2C(=O)CNC(=O)[C@@H](N)CSSC[C@@H](C(N)=O)NC(=O)[C@H](Cc2ccccc2)NC(=O)[C@H](CC(=O)O)NC1=O [drawing 30] (H-CGPEFLDFC-NH2; disulfide 1-9) | –
– | 6.26 | CC(C)C[C@@H]1NC(=O)[C@H](Cc2ccccc2)NC(=O)[C@H](CCC(=O)O)NC(=O)[C@@H](N)CSSC[C@@H](C(N)=O)NC(=O)[C@H](CO)NC(=O)[C@@H]2CCCN2C(=O)[C@H](Cc2ccccc2)NC(=O)[C@H](CC(=O)O)NC1=O [drawing 34] (H-CEFLDFPSC-NH2; disulfide 1-9) | –
– | 6.26 | CC(C)C[C@@H]1NC(=O)[C@H](Cc2ccccc2)NC(=O)[C@H](CCC(=O)O)NC(=O)[C@@H]2CCCN2C(=O)[C@@H](N)CSSC[C@@H](C(N)=O)NC(=O)[C@H](CO)NC(=O)[C@@H]2CCCN2C(=O)[C@H](Cc2ccccc2)NC(=O)[C@H](CC(=O)O)NC1=O [drawing 35] (H-CPEFLDFPSC-NH2; disulfide 1-10) | –
– | 2.52 | NC(=O)[C@@H]1CSSC[C@H](NC(=O)[C@@H](N)Cc2ccccc2)C(=O)N[C@@H](CC(=O)O)C(=O)N[C@@H](Cc2ccccc2)C(=O)N1 [drawing 39] (H-FCDFC-NH2; disulfide 2-5) | –

Further lines, the compound ahead of its results:

Compound | Relative Potency (VLA-4 [2]; [5]) | Relative Potency (VLA-4 [2]; [6]) | other results
NC(=O)[C@@H]1CSSC[C@H](NC(=O)Cc2ccccc2)C(=O)N[C@@H](CC(=O)O)C(=O)N[C@@H](Cc2ccccc2)C(=O)N1 [SEQ ID NO:7, .phi.AcCDFC-NH2] (PhAc-CDFC-NH2; disulfide 1-4) | 526 | – | potency relative to the best linear peptide (XLDFZ) as inhibitor of Jurkat cell binding to sVCAM-1 (VLA-4/sVCAM-1): about 3 times; relative potencies for inhibiting Jurkat cell binding to solid phase-bound sVCAM-1 (VLA-4/sVCAM-1): ~3.8; loss of potency in serum-containing buffer [1]: no loss of potency after 24 hours; potency relative to the best linear peptide (XLDFZ) for inhibiting Jurkat cell binding to CS-1 (VLA-4 [2]): about two-thirds the potency; CS-1 inhibition potencies relative to each other (VLA-4 [2]): ~1.8; Potency in inhibiting Jurkat cell binding to CS-1 relative to standard 10-mer of SEQ ID NO:6 (VLA-4 [2]): 500-600 and ~563
CC(=O)N[C@@H](Cc1ccccc1)C(=O)N[C@H]1CSSC[C@@H](C(=O)N2CCC[C@H]2C(N)=O)NC(=O)[C@H](CC(=O)O)NC1=O [SEQ ID NO:29, AcFCDCP-NH2] (Ac-FCDCP-NH2; disulfide 2-4) | 1 | – | –
NC(=O)[C@@H]1CCCN1C(=O)[C@@H]1CSSC[C@H](NC(=O)[C@@H](N)Cc2ccccc2)C(=O)N[C@@H](CC(=O)O)C(=O)N1 [SEQ ID NO:30, FCDCP-NH2] (H-FCDCP-NH2; disulfide 2-4) | < 1 | – | –
CC(C)C[C@@H]1NC(=O)[C@H](CCC(=O)O)NC(=O)[C@@H]2CCCN2C(=O)[C@@H](N)CSSC[C@@H](C(N)=O)NC(=O)[C@H](CO)NC(=O)[C@@H]2CCCN2C(=O)[C@H](Cc2ccccc2)NC(=O)[C@H](CC(=O)O)NC1=O [SEQ ID NO:33, CPELDFPSC-NH2] (H-CPELDFPSC-NH2; disulfide 1-9) | 31 | – | –
CC(C)C[C@H](NC(=O)Cc1ccccc1)C(=O)N[C@@H](CC(=O)O)C(=O)N[C@@H](Cc1ccccc1)C(=O)N1CCC[C@@H]1C(N)=O [XLDFp, .phi.Ac-LeuAspPhe-D-Pro-NH2, reference compound] (PhAc-LDF[dP]-NH2) | – | – | relative potencies for inhibiting Jurkat cell binding to solid phase-bound sVCAM-1 (VLA-4/sVCAM-1): ~1; CS-1 inhibition potencies relative to each other (VLA-4 [2]): ~1; Potency in inhibiting Jurkat cell binding to CS-1 relative to standard 10-mer of SEQ ID NO:6 (VLA-4 [2]): ~313
CC(C)C[C@@H]1NC(=O)[C@H](Cc2ccccc2)NC(=O)[C@@H](N)CSSC[C@@H](C(N)=O)NC(=O)[C@@H]2CCCN2C(=O)[C@H](Cc2ccccc2)NC(=O)[C@H](CC(=O)O)NC1=O [drawing 7] (H-CFLDFPC-NH2; disulfide 1-7) | – | 254 | –
CC(=O)N[C@H]1CSSC[C@@H](C(N)=O)NC(=O)[C@@H]2CCCN2C(=O)[C@H](Cc2ccccc2)NC(=O)[C@H](CC(=O)O)NC(=O)[C@H](CC(C)C)NC(=O)[C@H](Cc2ccccc2)NC1=O [drawing 10] (Ac-CFLDFPC-NH2; disulfide 1-7) | – | 135 | –
NC(=O)[C@@H]1CSSC[C@H](NC(=O)[C@@H](N)Cc2ccccc2)C(=O)N[C@@H](CC(=O)O)C(=O)N[C@@H](Cc2ccccc2)C(=O)N2CCC[C@H]2C(=O)N1 [drawing 11] (H-FCDFPC-NH2; disulfide 2-6) | – | 131 | –
Arg-Gly-Asp [Arg-Gly-Asp peptide] | – | – | recruitment of T lymphocytes to skin inflammatory sites (contact hypersensitivity): also inhibitory
DELPQLVTLPHPNLHGPEILDVPST [CS-1 peptide, reference compound] | – | – | clearance from blood circulation [3]: rapidly cleared from blood circulation by proteolytic degradation; loss of potency in serum-containing buffer [1]: lost its potency in less than one hour
ILDFP-NH2 [SEQ ID NO:27, ILDFP-NH2] | 2 | – | –
ILDVPILDVP-NH2 [SEQ ID NO:26, ILDVPILDVP-NH2] | 2 | – | –
Leu-Asp-Val [LDV] | – | – | affinity of VLA-4 compared with native CS-1 25-mer (VLA-4 [4]): at least two orders of magnitude lower affinity
SFDFS-NH2 [SEQ ID NO:31, SFDFS-NH2] | < 1 | – | –
